In assay [1] the target is muscarinic receptors (lachrymal glands) (Rattus norvegicus, UniProt P08483). As to the kind of experiment: in vivo. The settings on record: iv, 0.5 h, read-out: ID50, Lachrymal glands. The procedure:
(§1) For these experiments, female rats with a body weight of about 200 g were used. Before the start of the experiment the animals were anaesthetised with a dose of 1.25 g/kg of urethane. The animals were given the dosage of test substance by i.v. injection. After 15 minutes, 113 ng/kg of ^3 H-N-methylscopolamine (^3 H-NMS) were given by the same route. After another 15 minutes the animals were killed and their heart, bronchi and lachrymal glands were taken out. These organs were dissolved in Soluene R and the radioactivity was measured. These measurements were taken as representing total binding. […] The ID50 values for the individual organs were determined from these experiments. […]

Assay [2] deals with heart rate. As to the kind of experiment: Inhibition of acetylcholine activity on heart rate. The format is in vivo, guinea pig. The conditions noted are these: Cavia porcellus, 5 min, read-out: log ED50, Heart. The procedure: (§2) 5 minutes after the administration of the test substance, 10 mcg/kg of acetylcholine were simultaneously injected intravenously and intra-arterially into anaesthetised guinea pigs. The heart rate was recorded directly by extracorporeal derivation of the ECG, the expiration resistance according to Konzett-Rossler and contraction of the exposed bladder. In order to determine the inhibition of the acetylcholine activity on the organs under investigation, dosage/activity curves were recorded and from them -log ED50 values were determined.

Assay [3] deals with T1, muscarinic receptors of the atrium (Cavia porcellus, UniProt H0VRN8).
T1 construct: isolated, spontaneously beating, right atrium; from tissue; host or cells: isolated spontaneously beating right atrium of the guinea pig
T1 sequence (H0VRN8 1-466): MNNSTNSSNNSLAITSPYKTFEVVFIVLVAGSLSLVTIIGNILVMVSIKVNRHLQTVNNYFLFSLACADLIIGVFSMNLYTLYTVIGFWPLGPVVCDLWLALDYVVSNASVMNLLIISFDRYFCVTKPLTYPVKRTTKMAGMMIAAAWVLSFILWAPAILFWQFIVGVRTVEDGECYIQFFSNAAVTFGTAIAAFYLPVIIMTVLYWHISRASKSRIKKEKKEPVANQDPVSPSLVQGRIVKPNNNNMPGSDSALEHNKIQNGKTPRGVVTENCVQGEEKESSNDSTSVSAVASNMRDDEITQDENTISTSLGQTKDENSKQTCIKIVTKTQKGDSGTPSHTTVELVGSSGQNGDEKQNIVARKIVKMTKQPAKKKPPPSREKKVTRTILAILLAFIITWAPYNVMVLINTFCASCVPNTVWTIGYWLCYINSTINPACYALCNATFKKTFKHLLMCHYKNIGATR
As to the kind of experiment: Dissociation constants (KB values) on the isolated spontaneously beating right atrium. Also on record: species or system guinea pig. The settings on record: spontaneously beating atrium, guinea pig, methacholine, 30 minutes contact; read-out: KB, Heart. The procedure: Dissociation constants (KB values) were determined "in vitro" on the ileum and spontaneously beating atrium of the guinea pig. The ileum was taken out and incubated in Krebs-Henseleit solution in an organ bath. Contractions were induced by increasing concentrations of methacholine (M) so that total concentration/activity curves could be recorded. M was then washed out, the test substance was added and kept in contact for 30 minutes and another concentration/activity curve was recorded with M.
Dissociation constants for the muscarinic receptors of the atrium were obtained in the manner described above.

Assay [4] addresses T2, muscarinic receptors (heart, ventricle) (Rattus norvegicus, UniProt P10980).
T2 construct: from tissue; host or cells: heart (atrium, ventricle) of female rats, labelled in vivo
T2 sequence (P10980 1-466): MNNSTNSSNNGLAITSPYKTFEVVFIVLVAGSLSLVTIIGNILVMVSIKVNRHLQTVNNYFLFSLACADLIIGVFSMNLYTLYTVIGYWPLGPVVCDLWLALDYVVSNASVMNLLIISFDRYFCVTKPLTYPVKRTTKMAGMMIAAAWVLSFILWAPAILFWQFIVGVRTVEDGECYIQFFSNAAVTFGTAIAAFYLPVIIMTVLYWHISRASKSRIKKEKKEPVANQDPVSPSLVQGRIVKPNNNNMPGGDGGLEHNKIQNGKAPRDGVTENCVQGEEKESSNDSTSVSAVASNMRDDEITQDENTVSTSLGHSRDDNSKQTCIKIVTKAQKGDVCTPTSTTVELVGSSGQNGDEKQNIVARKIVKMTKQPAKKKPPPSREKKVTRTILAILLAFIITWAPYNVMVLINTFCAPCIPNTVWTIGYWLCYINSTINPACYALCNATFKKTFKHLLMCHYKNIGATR
As to the kind of experiment: Receptor binding test in vivo (3H-NMS), ventricle. The conditions noted are these: iv, 0.5 h, read-out: ID50, Heart, Ventricle. Also on record: species or system rat (female). The protocol:
as §1

For assay [5], the target named is T3, M1 (Rattus norvegicus, UniProt P08482).
T3 construct: from tissue; host or cells: living male THOM rat (site of action, sympathetic ganglia, is own knowledge)
T3 sequence (P08482 1-460): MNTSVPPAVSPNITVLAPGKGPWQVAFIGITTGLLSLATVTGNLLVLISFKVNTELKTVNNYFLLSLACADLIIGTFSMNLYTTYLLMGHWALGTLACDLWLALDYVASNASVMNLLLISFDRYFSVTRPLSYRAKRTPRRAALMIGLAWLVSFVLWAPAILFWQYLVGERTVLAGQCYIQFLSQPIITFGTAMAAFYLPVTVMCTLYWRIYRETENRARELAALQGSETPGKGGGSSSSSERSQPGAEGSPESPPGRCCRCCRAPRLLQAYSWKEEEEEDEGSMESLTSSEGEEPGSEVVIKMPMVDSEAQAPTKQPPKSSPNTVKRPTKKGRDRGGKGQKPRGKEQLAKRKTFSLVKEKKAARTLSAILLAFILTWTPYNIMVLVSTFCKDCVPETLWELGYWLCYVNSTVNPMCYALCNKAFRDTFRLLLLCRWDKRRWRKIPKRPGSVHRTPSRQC
As to the kind of experiment: M1 activity in the rat: inhibition of rise in blood pressure caused by McN-A-343. The format is in vivo, rat (male THOM). The conditions noted are these: iv, 5 min, read-out: M1 activity (rat) ED50. The protocol: The dosage of the substances which reduced either the vagal bradycardia (M2) or the rise in blood pressure (M1) by 50% was determined graphically. For the results see Table II.

For assay [6], the target named is T4, muscarinic receptors (heart, atrium) (Rattus norvegicus, UniProt P10980).
T4 construct: from tissue; host or cells: heart (atrium, ventricle) of female rats, labelled in vivo
T4 sequence (P10980 1-466): T2 sequence (P10980 1-466)
As to the kind of experiment: Receptor binding test in vivo (3H-NMS), atrium. Set-up: species or system rat (female). The settings on record: iv, 0.5 h, read-out: ID50, Heart, Atrium. The protocol: as §1

Assay [7] relates to muscarinic receptors (bronchi). As to the kind of experiment: Receptor binding test in vivo (3H-NMS), bronchi. Set-up: species or system rat (female). The conditions noted are these: i.v., in vivo 3H-NMS binding, rat; 30 min. The protocol:
as §1

The test system of assay [8] is bladder. As to the kind of experiment: Inhibition of acetylcholine activity on the bladder (contraction of the exposed bladder). It is filed as in vivo, guinea pig. The settings on record: Cavia porcellus, 5 min, read-out: log ED50, Bladder. The procedure: as §2

Molecules are shown by their SMILES.

Chain of muscarinic receptors (lachrymal glands) (P08483 whole entry): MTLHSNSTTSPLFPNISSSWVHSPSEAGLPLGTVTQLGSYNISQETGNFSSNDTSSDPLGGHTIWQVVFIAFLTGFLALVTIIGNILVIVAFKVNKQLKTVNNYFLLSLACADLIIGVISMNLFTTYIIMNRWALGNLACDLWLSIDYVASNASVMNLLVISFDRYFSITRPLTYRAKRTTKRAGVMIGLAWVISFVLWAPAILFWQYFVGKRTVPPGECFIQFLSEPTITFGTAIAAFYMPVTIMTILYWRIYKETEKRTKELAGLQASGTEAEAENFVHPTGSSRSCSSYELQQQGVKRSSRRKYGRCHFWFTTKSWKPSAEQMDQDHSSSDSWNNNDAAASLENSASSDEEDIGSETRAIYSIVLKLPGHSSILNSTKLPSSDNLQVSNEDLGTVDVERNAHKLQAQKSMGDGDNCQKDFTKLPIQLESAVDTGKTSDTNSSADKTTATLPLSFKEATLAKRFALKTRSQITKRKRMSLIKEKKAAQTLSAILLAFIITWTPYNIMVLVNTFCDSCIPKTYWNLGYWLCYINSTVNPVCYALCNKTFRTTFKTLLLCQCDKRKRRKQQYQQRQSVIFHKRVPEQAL

Consider `CN1[C@@H]2CC[C@H]1C[C@@H](OC(=O)C(CO)c1ccccc1)C2` (some centres unmarked) [Substance Z, atropine, reference compound], for which the ED50 was 0.2 mg/kg in assay [1]; 0.02 µmol/kg in assay [2]; 0.03 mg/kg in assay [4]; 0.016 mg/kg in assay [5]; 0.08 mg/kg in assay [6]; 0.0933 µmol/kg in assay [8]. Also, the Kb in assay [3] came out at 1.41 nM. For the same molecule, in assay [7], the “ID50, Bronchi” value worked out at 0.1 mg/kg.

The record behind these values is US4931436A, “Condensed diazepinones, processes for preparing them and pharmaceutical compositions containing these compounds” (Dr. Karl Thomae GmbH, priority 1988, dated 1990).
